Results from the NIST ThermoML archive (doi:10.1021/je500381c).

What was measured:
[1] = refractive index (Na D-line) (dimensionless); settings: 101.33 kPa, Liquid, Standard Abbe refractometry
[2] = for viscosity / mass density: 100 kPa, Liquid; for mass density: Vibrating tube method; for surface tension liquid-gas: Drop volume
[3] = xn = mol fraction of the nth substance listed; settings: for mass density / viscosity: 100 kPa, Liquid; for mass density: Vibrating tube method; for surface tension liquid-gas: Drop volume
[4] = refractive index (Na D-line) (dimensionless); xn = mol fraction of the nth substance listed; settings: 100 kPa, Liquid, Standard Abbe refractometry

CC12CC3CC(C)(C1)CC(C)(C3)C2 [1,3,5-trimethyladamantane]
Settings | mass density, [2] [kg/m3] | refractive index, [1] | surface tension liquid-gas, [2] [mN/m] | viscosity, [2] [mPa·s]
293.15 K | 887.48 | 1.4736 | – | 2.601
298.15 K | 883.99 | 1.4715 | 26.17 | 2.338
303.15 K | 880.47 | 1.4695 | – | 2.118
308.15 K | 876.94 | – | – | 1.93
313.15 K | 873.4 | 1.4649 | – | 1.765
318.15 K | 869.86 | – | – | 1.621
323.15 K | 866.31 | 1.4612 | – | 1.494
328.15 K | 862.76 | – | – | 1.384
333.15 K | 859.2 | 1.4568 | – | 1.284

CC12CC3CC(C1)CC(C)(C3)C2 [1,3-dimethyladamantane]
Settings | mass density, [2] [kg/m3] | refractive index, [1] | surface tension liquid-gas, [2] [mN/m] | viscosity, [2] [mPa·s]
293.15 K | 901.58 | 1.4776 | – | 3.764
298.15 K | 898.04 | 1.4757 | 27.88 | 3.345
303.15 K | 894.48 | 1.4734 | – | 3.004
308.15 K | 890.92 | – | – | 2.711
313.15 K | 887.35 | 1.4691 | – | 2.458
318.15 K | 883.77 | – | – | 2.237
323.15 K | 880.19 | 1.4651 | – | 2.045
328.15 K | 876.6 | – | – | 1.876
333.15 K | 873.01 | 1.461 | – | 1.728

CC12CC3CC(C1)CC(C)(C3)C2 [1,3-dimethyladamantane] + OCC1CCCCC1
x2 = 0
Settings | mass density, [3] [kg/m3] | refractive index, [4] | surface tension liquid-gas, [3] [mN/m] | viscosity, [3] [mPa·s]
293.15 K | 901.58 | 1.4776 | – | 3.764
298.15 K | 898.04 | 1.4757 | 27.88 | 3.345
303.15 K | 894.48 | 1.4734 | – | 3.004
308.15 K | 890.92 | – | – | 2.711
313.15 K | 887.35 | 1.4691 | – | 2.458
318.15 K | 883.77 | – | – | 2.237
323.15 K | 880.19 | 1.4651 | – | 2.045
328.15 K | 876.6 | – | – | 1.876
333.15 K | 873.01 | 1.461 | – | 1.728

CCC12CC3CC(CC(C3)C1)C2 [1-ethyladamantane]
Settings | mass density, [2] [kg/m3] | refractive index, [1] | surface tension liquid-gas, [2] [mN/m] | viscosity, [2] [mPa·s]
293.15 K | 937.11 | 1.4927 | – | 6.371
298.15 K | 933.58 | 1.4906 | 29.87 | 5.565
303.15 K | 929.99 | 1.4884 | – | 4.903
308.15 K | 926.4 | – | – | 4.348
313.15 K | 922.81 | 1.4839 | – | 3.878
318.15 K | 919.21 | – | – | 3.478
323.15 K | 915.62 | 1.4802 | – | 3.134
328.15 K | 912.01 | – | – | 2.838
333.15 K | 908.41 | 1.4759 | – | 2.581

OCC1CCCCC1 [cyclohexylmethanol]
Settings | mass density, [2] [kg/m3] | refractive index, [1] | surface tension liquid-gas, [2] [mN/m] | viscosity, [2] [mPa·s]
293.15 K | 929.76 | 1.4629 | – | 37.75
298.15 K | 926.25 | 1.4612 | 32.43 | 28.67
303.15 K | 922.71 | 1.4592 | – | 22.34
308.15 K | 919.14 | – | – | 17.57
313.15 K | 915.53 | 1.455 | – | 14.09
318.15 K | 911.88 | – | – | 11.43
323.15 K | 908.19 | 1.4507 | – | 9.354
328.15 K | 904.45 | – | – | 7.766
333.15 K | 900.67 | 1.4463 | – | 6.462

OCC1CCCCC1 [cyclohexylmethanol] + CC12CC3CC(C)(C1)CC(C)(C3)C2
x1 = 1
Settings | mass density, [3] [kg/m3] | refractive index, [4] | surface tension liquid-gas, [3] [mN/m] | viscosity, [3] [mPa·s]
293.15 K | 929.76 | 1.4629 | – | 37.75
298.15 K | 926.25 | 1.4612 | 32.43 | 28.67
303.15 K | 922.71 | 1.4592 | – | 22.34
308.15 K | 919.14 | – | – | 17.57
313.15 K | 915.53 | 1.455 | – | 14.09
318.15 K | 911.88 | – | – | 11.43
323.15 K | 908.19 | 1.4507 | – | 9.354
328.15 K | 904.45 | – | – | 7.766
333.15 K | 900.67 | 1.4463 | – | 6.462

OCC1CCCCC1 [cyclohexylmethanol] + CCC12CC3CC(CC(C3)C1)C2
x1 = 1
Settings | mass density, [3] [kg/m3] | refractive index, [4] | surface tension liquid-gas, [3] [mN/m] | viscosity, [3] [mPa·s]
293.15 K | 929.76 | 1.4629 | – | 37.75
298.15 K | 926.25 | 1.4612 | 32.43 | 28.67
303.15 K | 922.71 | 1.4592 | – | 22.34
308.15 K | 919.14 | – | – | 17.57
313.15 K | 915.53 | 1.455 | – | 14.09
318.15 K | 911.88 | – | – | 11.43
323.15 K | 908.19 | 1.4507 | – | 9.354
328.15 K | 904.45 | – | – | 7.766
333.15 K | 900.67 | 1.4463 | – | 6.462

CCCCCCCO [heptan-1-ol]
Settings | mass density, [2] [kg/m3] | refractive index, [1] | surface tension liquid-gas, [2] [mN/m] | viscosity, [2] [mPa·s]
293.15 K | 822.28 | 1.4236 | – | 6.887
298.15 K | 818.79 | 1.422 | 26.23 | 5.812
303.15 K | 815.28 | 1.4203 | – | 4.95
308.15 K | 811.74 | – | – | 4.245
313.15 K | 808.16 | 1.4156 | – | 3.654
318.15 K | 804.56 | – | – | 3.17
323.15 K | 800.92 | 1.4115 | – | 2.768
328.15 K | 797.24 | – | – | 2.428
333.15 K | 793.52 | 1.4077 | – | 2.141

CCCCCCCO [heptan-1-ol] + CC12CC3CC(C1)CC(C)(C3)C2
x1 = 1
Settings | mass density, [3] [kg/m3] | refractive index, [4] | surface tension liquid-gas, [3] [mN/m] | viscosity, [3] [mPa·s]
293.15 K | 822.28 | 1.4236 | – | 6.887
298.15 K | 818.79 | 1.422 | 26.23 | 5.812
303.15 K | 815.28 | 1.4203 | – | 4.95
308.15 K | 811.74 | – | – | 4.245
313.15 K | 808.16 | 1.4156 | – | 3.654
318.15 K | 804.56 | – | – | 3.17
323.15 K | 800.92 | 1.4115 | – | 2.768
328.15 K | 797.24 | – | – | 2.428
333.15 K | 793.52 | 1.4077 | – | 2.141

CCCCCCCO [heptan-1-ol] + CC12CC3CC(C)(C1)CC(C)(C3)C2
x1 = 1
Settings | mass density, [3] [kg/m3] | refractive index, [4] | surface tension liquid-gas, [3] [mN/m] | viscosity, [3] [mPa·s]
293.15 K | 822.28 | 1.4236 | – | 6.887
298.15 K | 818.79 | 1.422 | 26.23 | 5.812
303.15 K | 815.28 | 1.4203 | – | 4.95
308.15 K | 811.74 | – | – | 4.245
313.15 K | 808.16 | 1.4156 | – | 3.654
318.15 K | 804.56 | – | – | 3.17
323.15 K | 800.92 | 1.4115 | – | 2.768
328.15 K | 797.24 | – | – | 2.428
333.15 K | 793.52 | 1.4077 | – | 2.141

CCCCCCCO [heptan-1-ol] + CCC12CC3CC(CC(C3)C1)C2
x1 = 1
Settings | mass density, [3] [kg/m3] | refractive index, [4] | surface tension liquid-gas, [3] [mN/m] | viscosity, [3] [mPa·s]
293.15 K | 822.28 | 1.4236 | – | 6.887
298.15 K | 818.79 | 1.422 | 26.23 | 5.812
303.15 K | 815.28 | 1.4203 | – | 4.95
308.15 K | 811.74 | – | – | 4.245
313.15 K | 808.16 | 1.4156 | – | 3.654
318.15 K | 804.56 | – | – | 3.17
323.15 K | 800.92 | 1.4115 | – | 2.768
328.15 K | 797.24 | – | – | 2.428
333.15 K | 793.52 | 1.4077 | – | 2.141
